According to PubChem BioAssay AID248 (DTP/NCI, 2004):
“And” between values parts separate entries of the source, which are not always exact repeats. Equal values may be shown once. Inconclusive results and toxic doses are left out. Rule as the data show it: active = T/C of 150% or more; inactive = T/C below 125%.

Tested on: L1210 leukemia ip in BDF1 mice, survival T/C
Assay: NCI In Vivo Anticancer Drug Screen. Data for tumor model L1210 Leukemia (intraperitoneal) in B6D2F1 (BDF1) mice
Details: endpoint: mean survival time, higher = longer survival
Procedure, shortened: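 Tumor cells were implanted, animals were treated, and survival was followed. The result divides the treated measurement by the vehicle-control measurement.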

[1] = dose: 100.0 mg/kg/injection, schedule: Q01DX009 (ip), vehicle: Klucel (hydroxypropylcellulose) (HPC)
[2] = dose: 200.0 mg/kg/injection, schedule: Q01DX009 (ip), vehicle: Klucel (hydroxypropylcellulose) (HPC)
[3] = dose: 400.0 mg/kg/injection, schedule: Q01DX009 (ip), vehicle: Klucel (hydroxypropylcellulose) (HPC)
[4] = dose: 100.0 mg/kg/injection, schedule: Q04DX003 (ip), vehicle: Klucel (hydroxypropylcellulose) (HPC)
[5] = dose: 200.0 mg/kg/injection, schedule: Q04DX003 (ip), vehicle: Klucel (hydroxypropylcellulose) (HPC)
[6] = dose: 400.0 mg/kg/injection, schedule: Q04DX003 (ip), vehicle: Klucel (hydroxypropylcellulose) (HPC)

Measured: T/C

Cc1cccc(Cl)c1NC(=O)Oc1ccc2c(C)cc(=O)oc2c1
inactive: [1] 102 % of control | [2] 100 % of control | [3] 87 % of control

NC(=O)NC(=O)NCc1ccccc1
inactive: dose: 100.0 mg/kg/injection, schedule: Q04DX002 (ip), vehicle: Klucel (hydroxypropylcellulose) (HPC) 98 % of control | dose: 200.0 mg/kg/injection, schedule: Q04DX002 (ip), vehicle: Klucel (hydroxypropylcellulose) (HPC) 94 % of control | dose: 400.0 mg/kg/injection, schedule: Q04DX002 (ip), vehicle: Klucel (hydroxypropylcellulose) (HPC) 94 % of control

S=c1n(Cc2ccccc2)cnc2ncnn12
inactive: dose: 50.0 mg/kg/injection, schedule: Q01DX009 (ip), vehicle: Klucel (hydroxypropylcellulose) (HPC) 93 % of control | [1] 97 % of control | [2] 95 % of control

Cn1c(=O)cc(C=Nc2ccc(O)cc2)c2ccccc21
inactive: dose: 100.0 mg/kg/injection, schedule: Q01DX001 (ip), vehicle: saline 94 % of control | dose: 200.0 mg/kg/injection, schedule: Q01DX001 (ip), vehicle: saline 98 % of control

NC(=S)N/N=C\c1[nH]c(=O)nc2ccccc12
inactive: [1] 98 % of control | [4] 103 % of control | [2] 92 % of control | [5] 100 % of control | [3] 95 % of control | [6] 97 % of control

O=S(=O)(c1ccccc1)N1CC2C3C=CC(C3)C2C1 (stereo unspecified)
inactive: [4] 93 % of control | [5] 109 % of control | [6] 95 % of control

CN(Cc1ccccc1)C(=O)Nc1ccc(F)c([N+](=O)[O-])c1
inactive: [1] 113 % of control | [2] 98 % of control | [3] 101 % of control

COc1ccc(N=Cc2ccccc2O)cc1.[Co]
inactive: dose: 100.0 mg/kg/injection, schedule: Q01DX001 (ip), vehicle: other 96 % of control | dose: 200.0 mg/kg/injection, schedule: Q01DX001 (ip), vehicle: other 102 % of control | dose: 400.0 mg/kg/injection, schedule: Q01DX001 (ip), vehicle: other 105 % of control

NC(=O)c1csc(CCNC(=O)c2ccccc2)n1
inactive: dose: 100.0 mg/kg/injection, schedule: Q01DX001 (ip), vehicle: saline with Tween-80 100 % of control | dose: 100.0 mg/kg/injection, schedule: Q01DX009 (ip), vehicle: saline with Tween-80 100 % of control | dose: 100.0 mg/kg/injection, schedule: Q04DX003 (ip), vehicle: saline with Tween-80 95 % of control | dose: 200.0 mg/kg/injection, schedule: Q01DX001 (ip), vehicle: saline with Tween-80 102 % of control | dose: 200.0 mg/kg/injection, schedule: Q01DX009 (ip), vehicle: saline with Tween-80 100 % of control | dose: 200.0 mg/kg/injection, schedule: Q04DX003 (ip), vehicle: saline with Tween-80 103 % of control | dose: 400.0 mg/kg/injection, schedule: Q01DX001 (ip), vehicle: saline with Tween-80 104 % of control | dose: 400.0 mg/kg/injection, schedule: Q01DX009 (ip), vehicle: saline with Tween-80 89 % of control | dose: 400.0 mg/kg/injection, schedule: Q04DX003 (ip), vehicle: saline with Tween-80 101 % of control

COC1C(OC(N)=O)C(O)C(Oc2ccc3c(O)c(NC(=O)c4ccc(O)c(CC=C(C)C)c4)c(=O)oc3c2C)OC1(C)C (stereo unspecified)
inactive: dose: 50.0 mg/kg/injection, schedule: Q01DX Z (ip), vehicle: saline 91 % of control | dose: 100.0 mg/kg/injection, schedule: Q01DX Z (ip), vehicle: saline 91 % of control | dose: 200.0 mg/kg/injection, schedule: Q01DX Z (ip), vehicle: saline 91 % of control

CC(CN1CC(=O)NC(=O)C1)N1CC(=O)NC(=O)C1.[Cl-].[Pt+4] (stereo unspecified)
inactive: dose: 6.25 mg/kg/injection, schedule: Q01DX009 (ip), vehicle: saline 110 % of control | dose: 25.0 mg/kg/injection, schedule: Q01DX009 (ip), vehicle: saline 114 % of control and 120 % of control | dose: 25.0 mg/kg/injection, schedule: Q04DX003 (ip), vehicle: saline 108 % of control | dose: 50.0 mg/kg/injection, schedule: Q01DX009 (ip), vehicle: saline 120 % of control | dose: 50.0 mg/kg/injection, schedule: Q04DX003 (ip), vehicle: saline 109 % of control and 120 % of control | dose: 100.0 mg/kg/injection, schedule: Q01DX009 (ip), vehicle: saline 114 % of control | dose: 150.0 mg/kg/injection, schedule: Q04DX003 (ip), vehicle: saline 116 % of control
active: dose: 100.0 mg/kg/injection, schedule: Q04DX003 (ip), vehicle: saline 153 % of control
